Experimental data taken from paper PMC10002375, “Synthesis of 3-(2-Alkylthio-4-chloro-5-methylbenzenesulfonyl)-2-(1-phenyl-3-arylprop-2-enylideneamino)guanidine Derivatives with Pro-Apoptotic Activity against Cancer Cells” (International Journal of Molecular Sciences, 2023).

How the values were obtained:
HaCaT cells = assay: MTT assay with non-cancerous HaCaT cell line; assay type: cell-based; details: Homo sapiens, HaCaT, 72 h
Procedure: The important feature of new cytotoxic agents is their selective activity against cancer cells with a weak impact on the physiology of healthy cells. Determination of the selectivity of compounds 14–19 and 24–29 was done by MTT assay with the non-cancerous HaCaT cell line (Table 2). […] A similar effect was observed also for compound 26. […] Due to the excellent selectivity of compound 30 towards HCT-116 cells and at the same time high cytotoxicity towards this cell line (IC50 = 8 μM); derivative 30 may be a good hit compound for the search for chemotherapeutic agents for the treatment of colon cancer.
(§1) Cell viability was determined using the MTT (3-(4,5-dimethylthiazol-2-yl)-2,5-diphenyl-tetrazoliumbromide) assay. Stock solutions of the studied compounds were prepared in 100% DMSO. […] Cells were seeded in 96-well plates at a density of 5 × 10^3 cells/well and treated for 72 h with the examined compounds in the concentration range 1–100 μM (1, 10, 25, 50, and 100 μM). Following treatment, MTT (0.5 mg/mL) was added to the medium and cells were further incubated for 2 h at 37 °C. Cells were lysed with DMSO and the absorbance of the formazan solution was measured at 550 nm with a plate reader (1420 multilabel counter, Victor, Jügesheim, Germany). […] The experiment was performed in triplicate. Values are expressed as the mean ± SD of at least three independent experiments.

MCF-7 cells [1] = assay: Mitochondrial membrane potential (JC-1, flow cytometry), MCF-7; assay type: cell-based, human; details: MCF-7, 72 h, 24 at 10 or 25 μM, 31 at 25 μM
Description: A decrease in mitochondrial potential is one of the earliest hallmarks of apoptosis. A common method for indication of cells with high and low Δψm is flow cytometry combined with specific fluorescent probes, such as JC-1 (5,5′,6,6′-tetrachloro-1,1′,3,3′-tetraethylbenzimidazolylcarbocyanine iodide). JC-1 accumulates in mitochondria and forms complexes (J aggregates) with red fluorescence in healthy cells with a normal ΔΨm, whereas in apoptotic cells with a low ΔΨm exists as a monomer with green fluorescence.
Analyzed cells were seeded into wells of a 24-well plate at a density of 5 × 10^4 cells in 1000 µL, incubated overnight, and then the medium was exchanged for dilutions of reagents 24 and 31. Before the end of 72 h of incubation, MitoProbe JC-1 (25 µM) was added into each plate well. Carbonyl cyanide m-chlorophenylhydrazone CCCP (200 nM) as the mitochondrial oxidative phosphorylation uncoupler was added into the positive control 15 min before JC-1 was added. After 30 min of JC-1 staining, cells were washed with PBS and then trypsinized (Corning® 25-053CI). Cells suspended in PBS were analyzed by flow cytometry at λ excitation (ex) = 488 nm and λ emission (em) = 525/570 nm (LSR II BD Biosciences, San Jose, CA, USA).

HCT-116 cells = assay: Cell morphology by light microscopy, HCT-116; assay type: cell-based, human; details: HCT-116, 10 and 25 μM, 72 h
Procedure: (§2) The evaluation of changes in cell morphology has been performed after incubation with compounds 24 and 31 for 72 h using light microscopy.
(§3) The HeLa, MCF-7, and HCT-116 cells were seeded on 24-well plates (5 × 10^4/per well) in 1 mL of medium for 24 h. After that time, cells were treated with 24 and 31 for next 72 h. Cells were treated with 10 µM, 25 µM of 24, or 25 µM of 31. As a control, non-treated cells were used. Morphology of cells was observed after 72 h using light microscope Olympus IX83.

HCT-116 (colon cancer) = assay: MTT cell viability assay, HCT-116; assay type: cell-based, human
Procedure: (§4) All chemicals, if not stated otherwise, were obtained from Sigma-Aldrich (St. Louis, MO, USA). The MCF-7 cell line was purchased from Cell Lines Services (Eppelheim, Germany), the HeLa and HCT-116 cell lines were obtained from the Department of Microbiology, Tumor and Cell Biology, Karolinska Institute (Stockholm, Sweden). Cells were cultured in Dulbecco’s modified Eagle’s medium (DMEM) supplemented with 10% fetal bovine serum, 2 mM glutamine, 100 units/mL penicillin, and 100 μg/mL streptomycin. Cultures were maintained in a humidified atmosphere with 5% CO2 at 37 °C in an incubator (HeraCell, Heraeus, Langenselbold, Germany).
as §1

MCF-7 cells [2] = assay: Cell morphology by light microscopy, MCF-7; assay type: cell-based, human; details: MCF-7, 10 and 25 μM, 72 h
Procedure: as §2, §3

HeLa (cervical cancer) = assay: MTT cell viability assay, HeLa; assay type: cell-based, human
Procedure: as §4, §1

MCF-7 cells [3] = assay: Phosphatidylserine translocation (Annexin V-FITC/PI), MCF-7; assay type: cell-based, human
Description: One of the early indicators of apoptosis is the exposure of phosphatidylserine residues on the cell’s surface. Annexin V has a high affinity to phosphatidylserine and, as a conjugate to fluorescein isothiocyante (FITC), is widely used for detection of early apoptotic cells using flow cytometry. Detection of late-apoptotic or necrotic cells is achieved by using propidium iodide (PI) stain. Based on the obtained fluorescence, four subpopulations were found: PI-low/FITC-low (live cells), PI-high/FITC-low (necrotic cells), PI-low/FITC-high (early apoptotic cells), and PI-high/FITC-high (late apoptotic cells).
Analysis was performed using FITC-conjugated annexin-V (Annexin V-FITC Apoptosis Kit I, BD Biosciences, San Jose, CA, USA) according to the manufacturer’s instructions (BD Biosciences) as described previously. HeLa, MCF-7, and HCT-116, after seeding to 24-well plates (5 × 10^4/per well) and 24 h incubation, were treated for 72 h with 24 or 31 (10/25 µM or 25 µM concentration respectively). Following treatment, cells were washed in PBS, centrifuged, and then resuspended in a binding buffer. Afterward, the cells were incubated for 15 min at 37 °C with FITC-conjugated annexin-V and propidium iodide. The samples were then analyzed using a LSR II flow cytometer (BD Biosciences) using 530 ± 25 nm (Annexin V-FITC) and 575 ± 26 nm (PI).
The subpopulations were identified according to their fluorescence: PI-low/FITC-low (live cells), PI-high/FITC-low (necrotic cells), PI-low/FITC-high (early apoptotic cells), and PI-high/FITC-high (late apoptotic cells).

HeLa cells = assay: Cell morphology by light microscopy, HeLa; assay type: cell-based, human; details: 10 and 25 μM, 72 h
Procedure: as §2, §3

MCF-7 cells [4] = assay: Cell cycle distribution by flow cytometry, MCF-7; assay type: cell-based, human; details: for cells in sub-G1 phase: 72 h
Procedure: The cell cycle distribution was measured by flow cytometry analysis after incubation of MCF-7, HeLa, and HCT-116 with compounds 24 and 31 for 72 h.

Q: What does the source list for Cc1cc(S(=O)(=O)NC(N)=NN=C(C=Cc2ccccc2O)c2ccccc2)c(SCc2ccccc2Cl)cc1Cl [Compound 24, 3-{4-chloro-2-[(2-chlorophenyl)methylthio]-5-methylbenzenesulfonyl}-2-[3-(2-hydroxyphenyl)-1-phenylprop-2-enylideneamino]guanidine]?
A: IC50 (HaCaT cells): 33 ± 2 µM; change of mitochondrial membrane potential (ΔΨm) (MCF-7 cells [1]): remarkable decrease in ΔΨm; changes in cell morphology (HCT-116 cells): apoptotic-like changes, such as shrinkage of the cells or detachment from the surface; Selectivity Index HCT-116/HaCaT (HCT-116 (colon cancer); HCT-116 versus HaCaT, from IC50 values): 3.7; IC50 (HCT-116 (colon cancer); Homo sapiens, HCT-116, MTT, 72 h): 9 ± 0.5 µM; changes in cell morphology (MCF-7 cells [2]): apoptotic-like changes, such as shrinkage of the cells or detachment from the surface; Selectivity Index HeLa/HaCaT (HeLa (cervical cancer); HeLa versus HaCaT, from IC50 values): 1.9; IC50 (HeLa (cervical cancer); Homo sapiens, HeLa, MTT, 72 h): 17 ± 0.5 µM; induction of apoptosis (Annexin V-FITC/PI) (MCF-7 cells [3]; MCF-7, 10 μM, 72 h): Induction of apoptosis; population of apoptotic cells (Annexin V-FITC/PI) (MCF-7 cells [3]; MCF-7, 72 h, 24 at 10 or 25 μM, 31 at 25 μM): increased population of apoptotic cells; changes in cell morphology (HeLa cells): apoptotic-like changes, such as shrinkage of the cells or detachment from the surface; cells in sub-G1 phase (MCF-7 cells [4]; MCF-7, 10 μM): 5.22%; cells in sub-G1 phase (MCF-7 cells [4]; MCF-7, 25 μM): 7.53%; effect on cell cycle distribution (MCF-7 cells [4]; MCF-7, 72 h, 24 at 10 and 25 μM, 31 at 25 μM): no significant effect on the cell cycle distribution
